# Experiments:
# [1] = AD solubility in crystallization solvents; format: physicochemical
# [2] = Stability of aqueous AD solutions versus pH; format: physicochemical
smiles,measurement,setting,value
"CC(C)(C)C(=O)OCOP(=O)(COCCn1cnc2c(N)ncnc21)OCOC(=O)C(C)(C)C [AD, 9-[2-[[bis[(pivaloyloxy)methyl]phosphono]methoxy]ethyl]adenine]",AD content the solvent can contain,[1]; methanol or CH2Cl2,more than 50%
same,upper limit of solubility of AD,[1]; most crystallization solvents at room temperature,10-41%
same,solubility,"[1]; organic solvent or mixture, in di-n-butyl ether",< 300 µg/mL
same,pH of maximum stability,[2],3-5

# Reference: patent publication US6635278B1, “Pharmaceutical formulations” (Gilead Sciences, Inc., priority 1998, dated 2003)
